The nature of data set [1]: Oral allantoin administration (gavage), plasma allantoin levels in rats. It is filed as in vivo, Sprague Dawley rats. As to the method: Rats also received oral allantoin via gastric gavage. Rats were firmly restrained via grasping the loose skin of the neck and back to immobilize the head. While maintaining the rat in an upright position, the gavage needle (20 G×1½″) was passed through the side of the mouth and advanced into the esophagus by following the roof of the mouth and advanced further toward the stomach. After the needle was passed to the correct length, 125 mg of allantoin, dissolved in water or water, was injected. This procedure was repeated daily for five days.
For plasma analysis of allantoin venous blood was obtained from the right ventricle (rat) and collected from repeated blood draws (African green monkey). Blood was immediately centrifuged at 10,500 rpms (this needs to be in G) for 5 minutes. Supernatant was then removed and analyzed for allantoin. […] Following a 15 minute incubation, absorbance was read on a spectrometer at 340 nm. […] Following a 10 minute incubation absorbance was once again measured at 340 nm. The final absorbance was subtracted from the absorbance following the addition of allantoinase. […]
Rats received oral allantoin or water via gavage once daily for 5 days. […] Allantoin levels in plasma were determined utilizing the enzymatic detection assay. […]

The subject of data set [2] is NOX-1 expression in the SN. Kind of data set: NOX-1 immunohistochemistry, counts of NOX-1ir cells in the SN after 6-OHDA. It is filed as in vivo, Sprague Dawley rats. As to the method:
Rats were anesthetized prior to surgery with Equi-Thesin (0.3 ml/100 g body weight i.p.; chloral hydrate 42.5 mg/ml+sodium pentobarbital 9.72 mg/ml), their heads shaved, and then they were placed in a stereotaxic frame. Their skin was swabbed with Betadyne followed by 70% ETOH. The scalp was then opened to expose the skull. Two 1 mm holes were drilled into the skull and rats were injected in two sites in the striatum with 6-OHDA (MP Biomedicals, Solon, Ohio; 5 μg/μl 6-OHDA in 0.2% ascorbic acid, 0.9% saline solution). The coordinates for these injections were AP −1.6 mm, ML +2.4 mm, DV −4.2 mm and AP −0.2 mm, +ML 2.6 mm, DV −7.0 mm. The needle was zeroed at the skull directly above the injection site in order to target the DV coordinate. For each injection, the needle was lowered slowly to the injection site and 1 minute elapsed before injection commenced, 6-OHDA was injected at 0.5 μl/minute and at the end of the injection the needle was held in place for an additional 2 minutes prior to retraction. The wound area was cleaned with Betadine solution and the scalp was closed with surgical wound clips. This lesion paradigm results in a progressive loss of TH phenotype and frank DA cell death.
Brains were frozen on dry ice and sectioned at a 40 μm thickness using a sliding microtome. Every sixth section through the midbrain was for incubated 30 minutes in sodium citrate 10 mM at 80 degrees Celsius. Following blocking in 10% normal goat serum, tissue was incubated in primary antisera directed against NOX-1 (Santa Cruz Biotechnology, Santa Cruz, Calif., 1:1000). Following primary incubation, sections were incubated in biotinylated secondary antisera against rabbit IgG (Vector Laboratory, Burlingame, Calif., 1:200) followed by the Vector ABC detection kit employing horseradish peroxidase. Antibody labeling was visualized by exposure to 0.5 mg/ml 3,3′ diaminobenzidine (DAB) and 0.03% H2O2 in Tris buffer. Sections were mounted on subbed slides, dehydrated to xylene and coverslipped with Cytoseal.
Absolute counts of NOX-1ir cells was performed using a BX52 Olympus microscope interfaced with Microbrightfield stereological software and a Microfire CCD camera. Counts of NOX1-ir neurons were made at 20× and the sum of these values was adjusted according to the method of Abercrombie (Abercrombie, M., Estimation of nuclear populations from microtome sections, Anat. Rec. 94:239-247 (1946)). To assure that no cells were excluded or counted more than once, each cell was marked utilizing StereoInvestigator 7.0 (Microbrightfield Williston, Vt.). The total number of markers recorded by the software was utilized to estimate the total number of NOX-1ir cells (Fawcettt, et al., Dopaminergic neuronal survival and the effects of bFGF in explant, three dimensional and monolayer cultures of embryonic rat ventral mesencephalon, Exp. Brain Res. 106:275-82 (1995)).
Increased NOX-1 expression is directly linked to increased oxidative stress (Vignais, P., The superoxide-generating NADPF oxidase: structural aspects and activation mechanism, Cell Mol. Life Sci. 59:1428-59 (2002)). To determine the effect of ALL on NOX-1 expression in the SN and Red Nucleus, animals received either ALL pellets (n=6) or sham implantation (n=6). Pellet implantation surgery took place 3 days prior to intrastriatal 6-OHDA infusion. Twenty-four hours post-lesion, animals were sacrificed via intracardial saline perfusion and the SN was processed for NOX-1 immunohistochemistry.

In a further data set the test system is retinal ganglion cells. The settings on record: repeated i.p. every eight hours, optical nerve transection, adult rats; cited from earlier work.
Setting [3] is: s.c. ALL pellets 3 days prior to 6-OHDA, twenty-four hours post-lesion, vs untreated controls.

Data on 2 compounds can be found in patent US20120128654A1, “Allantoin Administration for the Treatment of Neurodegenerative Disease and Neurotrauma” (UNIVERSITY OF CINCINNATI, priority 2009, published 2012).

Entries after “also recorded” stand apart in the source; their conditions may differ.

Take `NC(=O)NC1NC(=O)NC1=O` (centres unmarked) [allantoin]: the plasma allantoin levels result in data set [1] (rat, 125 mg oral gavage once daily for 5 days, blood two hours following final dose, vs water) is on record as “doubling; also recorded: significant increase”. Moreover, in data set [1] (rats, oral allantoin once daily for 5 days), the negative health consequences result is listed as “Neither the rats nor the monkeys exhibited any obvious negative health consequences”. In addition, the “number of NOX-1ir cells in the SN” value in data set [2] (s.c. ALL pellets 3 days prior to 6-OHDA, overall treatment effect) is on record as “decreased”. Also, in data set [2] (setting [3]), the “number of NOX-1ir cells in the 6-OHDA lesioned SN” value is recorded as “significant decrease” and the “number of NOX-1ir cells in the intact SN” value is given as “significant decrease”. Moreover, in data set [2] (s.c. ALL pellets 3 days prior to 6-OHDA, twenty-four hours post-lesion, vs untreated controls, listed as ALL), the “number of NOX-1ir cells in the 6-OHDA lesioned SN” value was “significantly reduced”. Besides, in data set [2] (s.c. allantoin pellets, SN), the “NOX-1 expression induced by 6-OHDA” value was “significantly reduced”.

Take `OC[C@H]1O[C@@H](n2cnc3c(O)ncnc32)[C@H](O)[C@@H]1O` [inosine]: the “sparing of retinal ganglion cells” value in the data set with retinal ganglion cells is recorded as “significant sparing”.
